Assays:
[1] = test system: rat; assay: concentration in adipose after dosing; details: dosed: benzo(a)pyrene, 40 umol/kg, iv, male, Sprague Dawley
[2] = test system: rat; assay: concentration in feces after dosing; details: dosed: benzo(a)pyrene, 40 umol/kg, iv, male, Sprague Dawley
[3] = test system: rat; assay: concentration in liver after dosing; details: dosed: benzo(a)pyrene, 40 umol/kg, iv, male, Sprague Dawley
[4] = test system: rat; assay: concentration in blood after dosing; details: dosed: benzo(a)pyrene, 40 umol/kg, iv, male, Sprague Dawley
[5] = test system: rat; assay: concentration in lung after dosing; details: dosed: benzo(a)pyrene, 40 umol/kg, iv, male, Sprague Dawley
[6] = test system: rat; assay: concentration in blood after dosing (% dose/mL); details: dosed: benzo(a)pyrene, 117 nmol, iv, male, Sprague Dawley
[7] = test system: rat; assay: concentration in skin after dosing; details: dosed: benzo(a)pyrene, 40 umol/kg, iv, male, Sprague Dawley
[8] = test system: rat; assay: concentration in kidney after dosing; details: dosed: benzo(a)pyrene, 40 umol/kg, iv, male, Sprague Dawley

c1ccc2c(c1)cc1ccc3cccc4ccc2c1c34 [benzo(a)pyrene]
Details | concentration in adipose [µmol/kg] | concentration in blood | concentration in feces [µmol/kg] | concentration in kidney [µmol/kg] | concentration in liver [µmol/kg] | concentration in lung [µmol/kg] | concentration in skin [µmol/kg]
[1], 2 h | 2.47 | – | – | – | – | – | –
[1], 4 h | 1.4 | – | – | – | – | – | –
[1], 8 h | 3.23 | – | – | – | – | – | –
[1], 16 h | 3.19 | – | – | – | – | – | –
[1], 24 h | 2.11 | – | – | – | – | – | –
[1], 33 h | 2.4 | – | – | – | – | – | –
[1], 48 h | 1.27 | – | – | – | – | – | –
[1], 72 h | 0.663 | – | – | – | – | – | –
[2], 2 h | – | – | 0.0005 | – | – | – | –
[2], 4 h | – | – | 0.002 | – | – | – | –
[2], 8 h | – | – | 0.0127 | – | – | – | –
[2], 16 h | – | – | 0.0779 | – | – | – | –
[2], 24 h | – | – | 0.351 | – | – | – | –
[2], 33 h | – | – | 0.382 | – | – | – | –
[2], 48 h | – | – | 0.354 | – | – | – | –
[2], 72 h | – | – | 0.397 | – | – | – | –
[3], 2 h | – | – | – | – | 2.31 | – | –
[3], 4 h | – | – | – | – | 1.91 | – | –
[3], 8 h | – | – | – | – | 1.79 | – | –
[3], 16 h | – | – | – | – | 0.574 | – | –
[3], 24 h | – | – | – | – | 0.21 | – | –
[3], 33 h | – | – | – | – | 0.165 | – | –
[3], 48 h | – | – | – | – | 0.0546 | – | –
[3], 72 h | – | – | – | – | 0.0254 | – | –
[4], 2 h | – | 0.422 µmol/kg | – | – | – | – | –
[4], 4 h | – | 0.118 µmol/kg | – | – | – | – | –
[4], 8 h | – | 0.076 µmol/kg | – | – | – | – | –
[4], 16 h | – | 0.0274 µmol/kg | – | – | – | – | –
[4], 24 h | – | 0.0156 µmol/kg | – | – | – | – | –
[4], 33 h | – | 0.0066 µmol/kg | – | – | – | – | –
[4], 48 h | – | 0.005 µmol/kg | – | – | – | – | –
[4], 72 h | – | 0.0024 µmol/kg | – | – | – | – | –
[5], 2 h | – | – | – | – | – | 17 | –
[5], 4 h | – | – | – | – | – | 10.2 | –
[5], 8 h | – | – | – | – | – | 17.6 | –
[5], 16 h | – | – | – | – | – | 16.9 | –
[5], 24 h | – | – | – | – | – | 8.02 | –
[5], 33 h | – | – | – | – | – | 11.2 | –
[5], 48 h | – | – | – | – | – | 7.35 | –
[5], 72 h | – | – | – | – | – | 5.18 | –
[6], 0.3233 h | – | 0.081 | – | – | – | – | –
[6], 0.4938 h | – | 0.0586 | – | – | – | – | –
[6], 0.7433 h | – | 0.0404 | – | – | – | – | –
[6], 0.9867 h | – | 0.0307 | – | – | – | – | –
[6], 1.736 h | – | 0.012 | – | – | – | – | –
[6], 2.474 h | – | 0.00662 | – | – | – | – | –
[6], 3.463 h | – | 0.00438 | – | – | – | – | –
[6], 3.977 h | – | 0.00384 | – | – | – | – | –
[6], 4.987 h | – | 0.00267 | – | – | – | – | –
[6], 55 s | – | 0.859 | – | – | – | – | –
[6], 206 s | – | 0.278 | – | – | – | – | –
[7], 2 h | – | – | – | – | – | – | 7.56
[7], 4 h | – | – | – | – | – | – | 2.74
[7], 8 h | – | – | – | – | – | – | 1.7
[7], 16 h | – | – | – | – | – | – | 0.783
[7], 24 h | – | – | – | – | – | – | 0.102
[7], 33 h | – | – | – | – | – | – | 0.0296
[7], 48 h | – | – | – | – | – | – | 0.0205
[7], 72 h | – | – | – | – | – | – | 0.018
[8], 2 h | – | – | – | 0.53 | – | – | –
[8], 4 h | – | – | – | 0.145 | – | – | –
[8], 8 h | – | – | – | 0.164 | – | – | –
[8], 16 h | – | – | – | 0.0435 | – | – | –
[8], 24 h | – | – | – | 0.0127 | – | – | –
[8], 33 h | – | – | – | 0.008 | – | – | –
[8], 48 h | – | – | – | 0.004 | – | – | –
[8], 72 h | – | – | – | 0.001 | – | – | –
